According to PubChem BioAssay (NCI):
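Five compound concentrations were applied to cells in 96-well plates for 48 hours; endpoints were derived by simple linear interpolation of the resulting dose-response curve. TGI: total growth inhibition.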

Columns and labels:
Experiment in all cases: inhibition of tumour cell growth, NCI panel, 48 h
[1] = system: A549 NSCLC
[2] = system: ACHN renal
[3] = system: MDA-MB-435
[4] = system: HT29 colon
[5] = system: OVCAR-5 ovarian
[6] = system: BT-549 breast
[7] = system: UACC-62 melanoma
[8] = system: NCI-H460 lung
[9] = system: RPMI-8226 leukemia
[10] = system: MOLT-4 leukemia

| SMILES | TGI [1] [µM] | TGI [2] [µM] | TGI [3] [µM] | TGI [4] [µM] | TGI [5] [µM] | TGI [6] [µM] | TGI [7] [µM] | TGI [8] [µM] | TGI [9] [µM] | TGI [10] [µM] |
| --- | --- | --- | --- | --- | --- | --- | --- | --- | --- | --- |
| CC(C)c1ccccc1SC1CC(=O)CC(Sc2ccccc2C(C)C)C12O[C@H](c1ccccc1)[C@@H](c1ccccc1)O2 (stereo not given in full) | > 100 | > 100 | 55.2 | > 100 | > 100 | > 100 | 96.4 | > 100 | 61.3 | > 100 |
| C=C1C(=O)C([Si](C)(C)C)=C2C=C(C)C3(CC3)C12C (stereo not given) | > 100 | > 100 | 64.3 | 48.7 | > 100 | 55 | > 100 | > 100 | 15.3 | 11.9 |
| O=c1c2cc(S(=O)(=O)Nc3ccccc3Cl)ccc2ncn1NS(=O)(=O)c1ccc(Br)cc1 | > 37.5 | > 37.5 | > 37.5 | > 37.5 | > 37.5 | > 37.5 | > 37.5 | > 37.5 | > 37.5 | > 37.5 |
| Cc1occc1C(=S)Nc1ccc(Cl)c(C(=O)OCC(F)(F)F)c1 | 58.4 | 54.1 | 37.4 | 33.7 | > 100 | 42.7 | 32 | 48.1 | 51.5 | 55.8 |
| CC(C)OP(=O)(OC(C)C)C(C(C)C)N(C)/C(N)=N\C1=NC(C(F)(F)F)(C(F)(F)F)N=C(C(C(F)(F)F)C(F)(F)F)O1 (stereo not given) | 14.6 | 8.67 | 3.78 | 6.98 | 11.4 | 8.2 | 4.7 | 9.91 | 7.45 | 4.78 |
| Oc1ccccc1/C=N/Nc1nnc2c3ccccc3c3ccccc3c2n1 | > 100 | > 100 | > 100 | > 100 | > 100 | > 100 | > 100 | > 100 | > 100 | > 100 |
| CCOC(=O)NC(C(F)(F)F)(C(F)(F)F)P(=O)(OC(C)C)OC(C)C | > 100 | > 100 | > 100 | > 100 | > 100 | > 100 | > 100 | > 100 | > 100 | > 100 |
| O=C(c1ccc(Cl)cc1Cl)N(C(=O)N1CCC(c2ccccc2)CC1)c1ccccc1 | > 100 | > 100 | > 100 | > 100 | > 100 | > 100 | > 100 | > 100 | > 100 | 75 |
| NC(=O)C(Nc1c(Cl)cccc1Cl)c1cc2cc(Br)ccc2nc1Cl (stereo not given) | > 100 | > 100 | 49.9 | > 100 | > 100 | > 100 | > 100 | > 100 | > 100 | 57.6 |
| C[C@@]12C=CC3C/C(=N\C(N)=S)C=C(CCCC4OCCO4)[C@]3(CC1)C2 (stereo not given in full) | 59.7 | 92.2 | 45.5 | 25.4 | 33.3 | 51.9 | 30.4 | 32 | 50.8 | 59.2 |
| CCOC(=O)/C(N=Nc1ccc(-n2c(C)nc3ccccc3c2=O)cc1)=C(/C)O | > 100 | > 100 | 59.8 | > 100 | > 100 | > 100 | > 100 | > 100 | > 100 | 64.1 |
| CCCCCC(=O)Nc1n[nH]nc1C(N)=O | > 100 | > 100 | > 100 | > 100 | > 100 | > 100 | > 100 | > 100 | > 100 | > 100 |
| O=c1[nH]c(=O)n(C2OC(CO)C(O)C(F)C2O)cc1F (stereo not given) | > 100 | > 100 | > 100 | > 100 | > 100 | > 100 | > 100 | > 100 | > 100 | 62 |
| C=C(c1ccccc1)C1ON(C)CCc2cc(OC)c(OC)cc21 (stereo not given) | > 100 | > 100 | > 100 | > 100 | > 100 | > 100 | > 100 | > 100 | > 100 | > 100 |
| COc1ccc(OC)c2sc(N3C(=O)/C(=C/Cc4ccco4)N=C3c3ccccc3)nc12 | > 100 | 73 | 60.8 | > 100 | > 100 | > 100 | 51.1 | > 100 | > 100 | 70.9 |
| CC1(C)C(=O)N(O)C(C)(C)N1O | > 10 | > 10 | > 10 | > 10 | > 10 | > 10 | > 10 | > 10 | > 10 | > 10 |
